Test results: PubChem BioAssay AID222 (DTP/NCI, 2004)
Several values for one entry are separate records, joined by “and”; a condition that tells them apart may be missing. Equal entries are not always repeated. Inconclusive results and toxic doses are left out. The calls were made as follows: active = survival T/C of 150% or more; inactive = T/C below 125% in these data.

Tested on: C57BL/6 mice, intracerebral ependymoblastoma, median survival T/C
Assay: NCI In Vivo Anticancer Drug Screen. Data for tumor model Ependymoblastoma (intracerebral) in C57BL/6 mice
Conditions: endpoint: median survival time, higher = longer survival
Protocol: The antitumor activity of compounds was measured in mice bearing transplantable tumors. Survival or tumor size were measured and the results are expressed as the measurement made in the treated group (T) divided by the measurement made in the vehicle treated control group (C). The tumor model used in this assay is Ependymoblastoma (intracerebral) in C57BL/6 mice

Measured: T/C

OC(C1CO1)C(O)C1CO1 (stereo not drawn)
inactive: dose: 0.12 mg/kg/injection, schedule: Q03HX024 (ip), vehicle: saline 108 % of control | dose: 0.25 mg/kg/injection, schedule: Q01DX001 (ip), vehicle: saline 102 % of control | dose: 0.25 mg/kg/injection, schedule: Q01DX005 (ip), vehicle: saline 112 % of control | dose: 0.25 mg/kg/injection, schedule: Q01DX005 (oral), vehicle: saline 111 % of control | dose: 0.25 mg/kg/injection, schedule: Q01DX009 (ip), vehicle: saline 101 % of control | dose: 0.25 mg/kg/injection, schedule: Q03HX008 (ip), vehicle: saline 110 % of control | dose: 0.25 mg/kg/injection, schedule: Q03HX016 (ip), vehicle: saline 103 % of control | dose: 0.25 mg/kg/injection, schedule: Q03HX024 (ip), vehicle: saline 99 % of control | dose: 0.5 mg/kg/injection, schedule: Q01DX001 (ip), vehicle: saline 112 % of control | dose: 0.5 mg/kg/injection, schedule: Q01DX001 (oral), vehicle: saline 101 % of control | dose: 0.5 mg/kg/injection, schedule: Q01DX005 (ip), vehicle: clinical formulation 104 % of control | dose: 0.5 mg/kg/injection, schedule: Q01DX005 (oral), vehicle: saline 110 % of control | dose: 0.5 mg/kg/injection, schedule: Q01DX009 (ip), vehicle: saline 108 % of control | dose: 0.5 mg/kg/injection, schedule: Q03HX008 (ip), vehicle: saline 123 % of control | dose: 0.5 mg/kg/injection, schedule: Q03HX016 (ip), vehicle: saline 107 % of control | dose: 0.5 mg/kg/injection, schedule: Q03HX024 (ip), vehicle: saline 98 % of control | dose: 0.5 mg/kg/injection, schedule: Q## X006 (ip), vehicle: clinical formulation 107 % of control | dose: 1.0 mg/kg/injection, schedule: Q01DX001 (ip), vehicle: saline 95 % of control and 107 % of control | dose: 1.0 mg/kg/injection, schedule: Q01DX001 (oral), vehicle: saline 108 % of control | dose: 1.0 mg/kg/injection, schedule: Q01DX005 (ip), vehicle: clinical formulation 116 % of control | dose: 1.0 mg/kg/injection, schedule: Q01DX005 (oral), vehicle: saline 106 % of control | dose: 1.0 mg/kg/injection, schedule: Q01DX009 (ip), vehicle: saline 109 % of control | dose: 1.0 mg/kg/injection, schedule: Q03HX016 (ip), vehicle: saline 113 % of control | dose: 1.0 mg/kg/injection, schedule: Q03HX024 (ip), vehicle: saline 94 % of control | dose: 1.0 mg/kg/injection, schedule: Q04DX003 (ip), vehicle: saline 100 % of control | dose: 1.0 mg/kg/injection, schedule: Q08DX002 (ip), vehicle: saline 108 % of control | dose: 1.0 mg/kg/injection, schedule: Q## X006 (ip), vehicle: clinical formulation 108 % of control | dose: 1.0 mg/kg/injection, schedule: Q#A X002 (ip), vehicle: clinical formulation 104 % of control | dose: 2.0 mg/kg/injection, schedule: Q01DX001 (ip), vehicle: clinical formulation 91 % of control and 96 % of control and 107 % of control | dose: 2.0 mg/kg/injection, schedule: Q01DX001 (ip), vehicle: saline 94 % of control and 100 % of control and 113 % of control | dose: 2.0 mg/kg/injection, schedule: Q01DX001 (oral), vehicle: saline 108 % of control | dose: 2.0 mg/kg/injection, schedule: Q01DX005 (ip), vehicle: clinical formulation 115 % of control | dose: 2.0 mg/kg/injection, schedule: Q01DX005 (oral), vehicle: clinical formulation 106 % of control | dose: 2.0 mg/kg/injection, schedule: Q01DX005 (oral), vehicle: saline 118 % of control | dose: 2.0 mg/kg/injection, schedule: Q01DX009 (ip), vehicle: saline 113 % of control | dose: 2.0 mg/kg/injection, schedule: Q03HX016 (ip), vehicle: saline 118 % of control | dose: 2.0 mg/kg/injection, schedule: Q03HX024 (ip), vehicle: saline 105 % of control | dose: 2.0 mg/kg/injection, schedule: Q04DX003 (ip), vehicle: saline 105 % of control | dose: 2.0 mg/kg/injection, schedule: Q08DX002 (ip), vehicle: saline 102 % of control | dose: 2.0 mg/kg/injection, schedule: Q## X006 (ip), vehicle: clinical formulation 109 % of control | dose: 2.0 mg/kg/injection, schedule: Q#A X002 (ip), vehicle: clinical formulation 106 % of control | dose: 4.0 mg/kg/injection, schedule: Q01DX001 (ip), vehicle: clinical formulation 102 % of control and 105 % of control and 108 % of control | dose: 4.0 mg/kg/injection, schedule: Q01DX001 (ip), vehicle: saline 94 % of control and 120 % of control | dose: 4.0 mg/kg/injection, schedule: Q01DX001 (oral), vehicle: saline 96 % of control | dose: 4.0 mg/kg/injection, schedule: Q01DX009 (ip), vehicle: saline 103 % of control | dose: 4.0 mg/kg/injection, schedule: Q03HX008 (ip), vehicle: saline 97 % of control | dose: 4.0 mg/kg/injection, schedule: Q03HX016 (ip), vehicle: saline 93 % of control | dose: 4.0 mg/kg/injection, schedule: Q03HX024 (ip), vehicle: saline 94 % of control | dose: 4.0 mg/kg/injection, schedule: Q04DX003 (ip), vehicle: saline 95 % of control | dose: 4.0 mg/kg/injection, schedule: Q08DX002 (ip), vehicle: saline 102 % of control | dose: 4.0 mg/kg/injection, schedule: Q#A X002 (ip), vehicle: clinical formulation 117 % of control | dose: 8.0 mg/kg/injection, schedule: Q01DX001 (ip), vehicle: clinical formulation 89 % of control and 106 % of control | dose: 8.0 mg/kg/injection, schedule: Q01DX001 (ip), vehicle: saline 94 % of control and 108 % of control and 112 % of control | dose: 8.0 mg/kg/injection, schedule: Q01DX001 (oral), vehicle: clinical formulation 91 % of control and 102 % of control and 115 % of control | dose: 8.0 mg/kg/injection, schedule: Q01DX001 (oral), vehicle: saline 108 % of control | dose: 8.0 mg/kg/injection, schedule: Q01DX009 (ip), vehicle: saline 107 % of control | dose: 8.0 mg/kg/injection, schedule: Q03HX008 (ip), vehicle: saline 95 % of control | dose: 8.0 mg/kg/injection, schedule: Q03HX016 (ip), vehicle: saline 94 % of control | dose: 8.0 mg/kg/injection, schedule: Q04DX003 (ip), vehicle: saline 122 % of control | dose: 8.0 mg/kg/injection, schedule: Q08DX002 (ip), vehicle: saline 104 % of control | dose: 8.0 mg/kg/injection, schedule: Q#A X002 (ip), vehicle: clinical formulation 100 % of control | dose: 16.0 mg/kg/injection, schedule: Q01DX001 (ip), vehicle: clinical formulation 98 % of control | dose: 16.0 mg/kg/injection, schedule: Q01DX001 (ip), vehicle: saline 98 % of control and 101 % of control | dose: 16.0 mg/kg/injection, schedule: Q01DX001 (oral), vehicle: clinical formulation 104 % of control and 108 % of control | dose: 16.0 mg/kg/injection, schedule: Q01DX001 (oral), vehicle: saline 101 % of control | dose: 16.0 mg/kg/injection, schedule: Q04DX003 (ip), vehicle: saline 99 % of control | dose: 16.0 mg/kg/injection, schedule: Q08DX002 (ip), vehicle: saline 104 % of control | dose: 16.0 mg/kg/injection, schedule: Q#A X002 (ip), vehicle: clinical formulation 102 % of control | dose: 32.0 mg/kg/injection, schedule: Q01DX001 (ip), vehicle: clinical formulation 100 % of control | dose: 32.0 mg/kg/injection, schedule: Q01DX001 (ip), vehicle: saline 90 % of control and 100 % of control | dose: 32.0 mg/kg/injection, schedule: Q01DX001 (oral), vehicle: clinical formulation 100 % of control and 114 % of control | dose: 32.0 mg/kg/injection, schedule: Q01DX001 (oral), vehicle: saline 103 % of control | dose: 32.0 mg/kg/injection, schedule: Q04DX003 (ip), vehicle: saline 92 % of control | dose: 32.0 mg/kg/injection, schedule: Q08DX002 (ip), vehicle: saline 99 % of control | dose: 64.0 mg/kg/injection, schedule: Q01DX001 (ip), vehicle: saline 97 % of control and 102 % of control | dose: 64.0 mg/kg/injection, schedule: Q01DX001 (oral), vehicle: clinical formulation 100 % of control | dose: 128.0 mg/kg/injection, schedule: Q01DX001 (oral), vehicle: clinical formulation 100 % of control
119 % of control and 301 % of control: dose: 3.0 mg/kg/injection, schedule: Q01DX005 (ip), vehicle: saline
active: dose: 1.25 mg/kg/injection, schedule: Q01DX005 (ip), vehicle: saline 365 % of control | dose: 2.5 mg/kg/injection, schedule: Q01DX005 (oral), vehicle: saline 365 % of control | dose: 5.0 mg/kg/injection, schedule: Q01DX005 (oral), vehicle: saline 365 % of control

CS(C)=O
inactive: dose: 1.5 grams/kg/injection, schedule: Q01DX005 (ip), vehicle: saline 103 % of control | dose: 6.0 grams/kg/injection, schedule: Q01DX005 (ip), vehicle: saline 103 % of control
